# Results from patent US20230295162A1 (EÖTVÖS LORÁND TUDOMÁNYEGYETEM, priority 2020, published 2023).
# How the values were obtained:
# [1] = test system: PANC-1 (human pancreatic carcinoma) cells; assay: Impedance-based viability assay (xCELLigence SP), long treatment; assay type: cell-based; conditions: 72 h, read-out: cytotoxicity expressed in IC50, PANC-1
# Excerpt: (Gibco®/Invitrogen Corporation, New York, NY, USA).
# Data obtained from each experiment represent mathematical averages.
# [2] = test system: A549 lung carcinoma cell line; assay: CellTiter-Glo IC50 (Example 19); assay type: cell-based; conditions: Homo sapiens, 72 h
# Procedure, shortened: (§1)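 Cells were seeded at 1000 cells/well and kept at 37 °C, 5% CO2. After compound treatment, viability was read by CellTiter-Glo luminescence as % of untreated control. IC50 came from a non-linear log(inhibitor) vs response fit with variable slope.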
# [3] = test system: BxPC3 pancreatic cancer cell line; assay: CellTiter-Glo IC50 (Example 19); assay type: cell-based; conditions: Homo sapiens, BXPC-3, 72 h
# Procedure, shortened: as §1
# [4] = test system: H1993 lung carcinoma cell line; assay: CellTiter-Glo IC50 (Example 19); assay type: cell-based; conditions: Homo sapiens, NCI-H1993, 72 h
# Procedure, shortened: as §1
# [5] = test system: H520 lung carcinoma cell line; assay: CellTiter-Glo IC50 (Example 19); assay type: cell-based; conditions: Homo sapiens, NCI-H520, 72 h
# Procedure, shortened: as §1
# [6] = test system: HCC827 lung carcinoma cell line; assay: CellTiter-Glo IC50 (Example 19); assay type: cell-based; conditions: Homo sapiens, 72 h
# Procedure, shortened: as §1
# [7] = test system: LNCap human prostate cancer cell line; assay: CellTiter-Glo IC50 (Example 19); assay type: cell-based; conditions: 72 h
# Procedure, shortened: as §1
# [8] = test system: MiaPaCa2 pancreatic cancer cell line; assay: CellTiter-Glo IC50 (Example 19); assay type: cell-based; conditions: Homo sapiens, MIA PaCa-2, 72 h
# Procedure, shortened: as §1
# [9] = test system: PC3 human prostate cancer cell line; assay: CellTiter-Glo IC50 (Example 19); assay type: cell-based; conditions: 72 h
# Procedure, shortened: as §1
# [10] = test system: MDA-MB-231 breast cancer cell line; assay: CellTiter-Glo IC50 (Table 3); assay type: cell-based; conditions: Homo sapiens
# Experimental: (§2) Some representative imipridones and ONC212 as reference were further tested on the following human malignant cell lines: PC3 and LNCap (prostate carcinoma); BxPC3, MiaPaCa2 and Panc1 (pancreatic cancer); A549, HCC827, H1993 and H520 (lung carcinoma); MDA-MB-453 and MDA-MB-231 (breast cancer) (see Table 2 and FIGS. 1-11).
# (§3) Cell lines were maintained according to the instructions provided by ATCC (https://www.lgcstandards-atcc.org/) in a 5% CO2 humidified incubator maintained at 37° C. temperature. Effects of compounds on cell viability were measured via CellTiter-Glo® luminescent cell viability assay (Promega, Madison, WI, USA) Cells were plated at 1000 cells/well onto a flat-bottomed, white 96 well plate (BRANDplates, cat. no.: 781965). […] After the treatment, medium was removed and CellTiter-Glo® reagent was added. The luminescence signal was recorded using a microplate reader (BioTek Synergy 2 Multi-Mode Reader, BioTek, Winooski, VT, USA).
# (§4) Cell viability data (% of untreated control cells) was evaluated with Microsoft Excel. Dose-response curves (using a non-linear regression model, log (inhibitor) vs response, variable slope) were generated and IC50 values were determined using Graph Pad Prism 5.02 software (GraphPad Software, San Diego, CA, USA).
# [11] = test system: MDA-MB-453 breast cancer cell line; assay: CellTiter-Glo IC50 (Table 3); assay type: cell-based; conditions: Homo sapiens
# Experimental: as §2, §3, §4
# [12] = test system: Detroit 562 (pharynx, carcinoma) cells; assay: Cell viability assay, CellTiter-Glo (Example 21); assay type: cell-based, human; conditions: 72 h treatment
# Procedure, shortened: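 Cells were seeded at optimized densities (Panc-1 750, FaDu 1000, Detroit 562 and MDA-MB-453 1500 cells/well), then treated with compound. Viability was read by CellTiter-Glo luminescence. Dose-response curves were fitted by four-parameter variable-slope non-linear regression.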
# [13] = test system: EBC-1 (lung, squamous cell carcinoma) cells; assay: Cell viability assay, CellTiter-Glo (Example 21); assay type: cell-based, human; conditions: 72 h treatment
# Procedure, shortened: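 The CellTiter-Glo luminescent cell viability assay (Promega) was used to test compound effects on EBC-1 cells. Cells were plated at 1000 cells/well on white flat-bottom 96 well plates, treated, then read for luminescence on a microplate reader. Dose-response curves were fitted by four-parameter variable-slope non-linear regression.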
# [14] = test system: LNCaP (prostate, carcinoma) cells; assay: Cell viability assay, CellTiter-Glo (Example 21); assay type: cell-based, human; conditions: 72 h
# Procedure, shortened: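 Flat-bottomed white 96 well plates received 1500 LNCaP cells per well, a density chosen to suit the cells' size and growth rate. Following compound treatment, viability was measured by CellTiter-Glo® luminescence per the manufacturer's protocol, with signal recorded on a BioTek Synergy 2 reader. GraphPad Prism 8.4.2 generated dose-response curves using a four-parameter, variable-slope non-linear regression model.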
# [15] = test system: MIA PaCa-2 (pancreas, carcinoma) cells; assay: Cell viability assay, CellTiter-Glo (Example 21); assay type: cell-based, human; conditions: 72 h treatment
# Procedure, shortened: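 Cell viability of MIA PaCa-2 cells was assessed by CellTiter-Glo® luminescence (Promega, Madison, WI, USA). Cells were plated at 1000 cells/well, a density chosen for their size and growth rate, in white flat-bottomed 96 well plates. After treatment, the signal was recorded on a BioTek microplate reader, and dose-response curves were fitted in GraphPad Prism 8.4.2 with a four-parameter variable-slope non-linear regression.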
# [16] = test system: PC-3 (prostate, adenocarcinoma) cells; assay: Cell viability assay, CellTiter-Glo (Example 21); assay type: cell-based, human; conditions: 72 h treatment
# Procedure, shortened: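 Cancer cell viability was assessed by luminescence using Promega's CellTiter-Glo® kit. PC-3 cells, plated at a density of 1000 cells/well in white flat-bottom 96 well plates, were exposed to test compounds, after which signals were measured on a microplate reader and dose-response curves fitted by four-parameter variable-slope non-linear regression in GraphPad Prism 8.4.2.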
# [17] = test system: COLO-205 (human colorectal adenocarcinoma) cells; assay: Colorimetric alamarBlue assay, long treatment; conditions: COLO 205, 72 h, read-out: cytotoxicity expressed in IC50, COLO-205
# [18] = test system: A2058 (human metastatic melanoma) cells; assay: Colorimetric alamarBlue assay, long treatment; conditions: Homo sapiens, A2058, 72 h, read-out: cytotoxicity expressed in IC50, A-2058
Structure (SMILES),"Detroit 562 (pharynx, carcinoma) cell viability (% of control) ([12]; 3.7 nM)","Detroit 562 (pharynx, carcinoma) cell viability (% of control) ([12]; 11.1 nM)","Detroit 562 (pharynx, carcinoma) cell viability (% of control) ([12]; 100 nM)","Detroit 562 (pharynx, carcinoma) cell viability (% of control) ([12]; 300 nM)","EBC-1 (lung, squamous cell carcinoma) cell viability (% of control) ([13]; 3.7 nM)","EBC-1 (lung, squamous cell carcinoma) cell viability (% of control) ([13]; 11.1 nM)","EBC-1 (lung, squamous cell carcinoma) cell viability (% of control) ([13]; 100 nM)","EBC-1 (lung, squamous cell carcinoma) cell viability (% of control) ([13]; 300 nM)",LNCaP cell viability ([14]; 3.7 nM),LNCaP cell viability ([14]; 11.1 nM),LNCaP cell viability ([14]; 100 nM),LNCaP cell viability ([14]; 300 nM),"MIA PaCa-2 (pancreas, carcinoma) cell viability (% of control) ([15]; 3.7 nM)","MIA PaCa-2 (pancreas, carcinoma) cell viability (% of control) ([15]; 11.1 nM)","MIA PaCa-2 (pancreas, carcinoma) cell viability (% of control) ([15]; 100 nM)","MIA PaCa-2 (pancreas, carcinoma) cell viability (% of control) ([15]; 300 nM)","PC-3 (prostate, adenocarcinoma) cell viability (% of control) ([16]; 3.7 nM)","PC-3 (prostate, adenocarcinoma) cell viability (% of control) ([16]; 11.1 nM)","PC-3 (prostate, adenocarcinoma) cell viability (% of control) ([16]; 100 nM)","PC-3 (prostate, adenocarcinoma) cell viability (% of control) ([16]; 300 nM)",further results
"O=C1C2=C(CCN(Cc3ccccc3)C2)N2CCN=C2N1Cc1ccc(C(F)(F)F)cc1 [I/1, reference compound]",104.1 ± 4.8 % of control,104.0 ± 17.2 % of control,35.8 ± 14.4 % of control,32.0 ± 5.0 % of control,98.8 ± 5.8 % of control,110.1 ± 11.9 % of control,43.4 ± 6.8 % of control,24.2 ± 2.1 % of control,98.6 ± 5.7 % of control,101.4 ± 3.3 % of control,28.1 ± 1.7 % of control,15.2 ± 1.7 % of control,105.7 ± 8.5 % of control,108.5 ± 11.2 % of control,43.4 ± 13.5 % of control,17.3 ± 8.8 % of control,106.0 ± 2.8 % of control,102.4 ± 3.7 % of control,60.4 ± 5.2 % of control,33.3 ± 3.3 % of control,IC50 [1]: 48 nM; IC50 [2]: 60 nM; IC50 [3]: 110 nM; IC50 [4]: 90 nM; IC50 [5]: 73 nM; IC50 [6]: 105 nM; IC50 [7]: 52 nM; IC50 [8]: 76 nM; IC50 [9]: 80 nM; IC50 [10]: 24 nM; IC50 [11]: 16 nM; IC50 [17]: 250 nM; IC50 [18]: > 10 µM
"O=C1C2=C(CCN(Cc3cccc(F)c3)C2)N2CCN=C2N1Cc1ccc(C(F)(F)F)cc1 [I/3, reference compound]",99.5 ± 8.4 % of control,44.3 ± 11.0 % of control,28.9 ± 5.3 % of control,28.7 ± 4.1 % of control,97.8 ± 4.0 % of control,96.3 ± 1.4 % of control,25.1 ± 0.2 % of control,22.2 ± 0.1 % of control,98.7 ± 7.4 % of control,95.0 ± 7.4 % of control,13.8 ± 1.7 % of control,12.7 ± 1.2 % of control,107.1 ± 16.4 % of control,105.2 ± 3.4 % of control,17.5 ± 7.9 % of control,17.2 ± 7.5 % of control,100.8 ± 4.0 % of control,110.2 ± 4.1 % of control,34.7 ± 1.0 % of control,32.3 ± 2.6 % of control,IC50 [1]: 44 nM; IC50 [17]: > 10000 nM; IC50 [18]: > 10 µM
"O=C1C2=C(CCN(Cc3cc(F)cc(F)c3)C2)N2CCN=C2N1Cc1ccc(Cl)cc1 [I/124, 4-(4-Chlorobenzyl)-7-(3,5-difluorobenzyl)-2,4,6,7,8,9-hexahydroimidazo[1,2-a]pyrido[3,4-e]pyrimidin-5(1H)-one]",29.4 ± 4.9 % of control,27.8 ± 3.6 % of control,28.3 ± 3.6 % of control,31.5 ± 3.7 % of control,70.9 ± 8.3 % of control,25.3 ± 0.7 % of control,22.4 ± 0.5 % of control,23.5 ± 1.3 % of control,20.8 ± 2.0 % of control,13.3 ± 1.6 % of control,12.7 ± 0.8 % of control,13.0 ± 0.7 % of control,33.5 ± 12.1 % of control,18.9 ± 7.1 % of control,18.7 ± 7.1 % of control,18.0 ± 7.3 % of control,46.9 ± 4.2 % of control,33.9 ± 3.3 % of control,32.8 ± 3.2 % of control,32.7 ± 14.4 % of control,melting point: 162.4 °C
